Source: the NIST ThermoML archive (doi:10.1021/je900596d)

Details: Vibrating tube method

FC(F)=C(F)C(F)(F)F [hexafluoropropene]
Details	mass density [kg/m3]
263.41 K, 162.7 kPa, Fluid (supercritical or subcritical phases)	11.79
263.41 K, 164.3 kPa, Fluid (supercritical or subcritical phases)	11.92
263.41 K, 165.5 kPa, Fluid (supercritical or subcritical phases)	12.02
263.41 K, 167 kPa, Fluid (supercritical or subcritical phases)	12.14
263.41 K, 168.6 kPa, Fluid (supercritical or subcritical phases)	12.22
263.41 K, 170.1 kPa, Fluid (supercritical or subcritical phases)	12.35
263.41 K, 171.8 kPa, Fluid (supercritical or subcritical phases)	12.46
263.41 K, 173.2 kPa, Fluid (supercritical or subcritical phases)	12.64
263.41 K, 174.8 kPa, Fluid (supercritical or subcritical phases)	12.73
263.41 K, 176.4 kPa, Fluid (supercritical or subcritical phases)	12.82
263.41 K, 177.9 kPa, Fluid (supercritical or subcritical phases)	13
263.41 K, 179.4 kPa, Fluid (supercritical or subcritical phases)	13.09
263.41 K, 180.9 kPa, Fluid (supercritical or subcritical phases)	13.22
263.41 K, 182.4 kPa, Fluid (supercritical or subcritical phases)	13.34
263.41 K, 183.9 kPa, Fluid (supercritical or subcritical phases)	13.46
263.41 K, 185.4 kPa, Fluid (supercritical or subcritical phases)	13.58
263.41 K, 186.9 kPa, Fluid (supercritical or subcritical phases)	13.66
263.41 K, 188.4 kPa, Fluid (supercritical or subcritical phases)	13.77
263.41 K, 189.9 kPa, Fluid (supercritical or subcritical phases)	13.87
263.41 K, 191.3 kPa, Fluid (supercritical or subcritical phases)	14.01
263.41 K, 192.8 kPa, Fluid (supercritical or subcritical phases)	14.11
263.41 K, 194.2 kPa, Fluid (supercritical or subcritical phases)	14.27
263.41 K, 195.7 kPa, Fluid (supercritical or subcritical phases)	14.37
263.41 K, 197.1 kPa, Fluid (supercritical or subcritical phases)	14.48
263.41 K, 198.5 kPa, Fluid (supercritical or subcritical phases)	14.63
263.41 K, 199.9 kPa, Fluid (supercritical or subcritical phases)	14.76
263.41 K, 201.3 kPa, Fluid (supercritical or subcritical phases)	14.81
263.41 K, 202.7 kPa, Fluid (supercritical or subcritical phases)	14.96
263.41 K, 204.1 kPa, Fluid (supercritical or subcritical phases)	15.01
263.41 K, 205.5 kPa, Fluid (supercritical or subcritical phases)	15.14
263.41 K, 206.9 kPa, Fluid (supercritical or subcritical phases)	15.26
263.41 K, 208.3 kPa, Fluid (supercritical or subcritical phases)	15.38
263.41 K, 209.6 kPa, Fluid (supercritical or subcritical phases)	15.49
263.41 K, 211 kPa, Fluid (supercritical or subcritical phases)	15.6
263.41 K, 212.3 kPa, Fluid (supercritical or subcritical phases)	15.71
263.41 K, 213.6 kPa, Fluid (supercritical or subcritical phases)	15.8
263.41 K, 214.9 kPa, Fluid (supercritical or subcritical phases)	15.93
263.41 K, 216.3 kPa, Fluid (supercritical or subcritical phases)	16.03
263.41 K, 217.6 kPa, Fluid (supercritical or subcritical phases)	16.16
263.41 K, 218.8 kPa, Fluid (supercritical or subcritical phases)	16.24
263.41 K, 220.2 kPa, Fluid (supercritical or subcritical phases)	16.31
263.41 K, 220.6 kPa, Fluid (supercritical or subcritical phases)	16.37
263.41 K, 221.1 kPa, Fluid (supercritical or subcritical phases)	16.43
263.41 K, 221.5 kPa, Fluid (supercritical or subcritical phases)	16.47
263.41 K, 222 kPa, Fluid (supercritical or subcritical phases)	16.48
263.41 K, 222.4 kPa, Fluid (supercritical or subcritical phases)	16.53
263.41 K, 223.2 kPa, Fluid (supercritical or subcritical phases)	16.59
263.41 K, 223.6 kPa, Fluid (supercritical or subcritical phases)	16.63
263.41 K, 224 kPa, Fluid (supercritical or subcritical phases)	16.66
263.41 K, 224.4 kPa, Fluid (supercritical or subcritical phases)	16.7
263.41 K, 225.4 kPa, Fluid (supercritical or subcritical phases)	16.76
263.41 K, 226.2 kPa, Fluid (supercritical or subcritical phases)	16.85
263.41 K, 226.6 kPa, Fluid (supercritical or subcritical phases)	16.88
263.41 K, 227 kPa, Fluid (supercritical or subcritical phases)	16.94
263.41 K, 227.9 kPa, Fluid (supercritical or subcritical phases)	16.98
263.41 K, 228.6 kPa, Fluid (supercritical or subcritical phases)	17.03
263.41 K, 229 kPa, Fluid (supercritical or subcritical phases)	17.07
263.41 K, 229.9 kPa, Fluid (supercritical or subcritical phases)	17.2
263.41 K, 230.7 kPa, Fluid (supercritical or subcritical phases)	17.24
263.41 K, 231.4 kPa, Fluid (supercritical or subcritical phases)	17.29
263.41 K, 231.9 kPa, Fluid (supercritical or subcritical phases)	17.35
263.41 K, 232.6 kPa, Fluid (supercritical or subcritical phases)	17.43
263.41 K, 233 kPa, Fluid (supercritical or subcritical phases)	17.48
263.41 K, 233.4 kPa, Fluid (supercritical or subcritical phases)	17.55
263.41 K, 234.2 kPa, Fluid (supercritical or subcritical phases)	17.65
263.41 K, 234.9 kPa, Fluid (supercritical or subcritical phases)	17.92
263.41 K, 235.5 kPa, Fluid (supercritical or subcritical phases)	18.45
263.41 K, 236 kPa, Fluid (supercritical or subcritical phases)	19
263.49 K, 230.2 kPa, Liquid	1462.58
263.49 K, 230.4 kPa, Liquid	1462.56
263.49 K, 231 kPa, Liquid	1462.62
263.49 K, 231.9 kPa, Liquid	1462.66
263.49 K, 232.1 kPa, Liquid	1462.66
263.49 K, 235.3 kPa, Liquid	1462.67
263.49 K, 242.7 kPa, Liquid	1462.66
263.49 K, 244.5 kPa, Liquid	1462.72
263.49 K, 250.6 kPa, Liquid	1462.76
263.49 K, 257.4 kPa, Liquid	1462.73
263.49 K, 258.3 kPa, Liquid	1462.79
263.49 K, 263.2 kPa, Liquid	1462.89
263.49 K, 273.9 kPa, Liquid	1462.91
263.49 K, 279.5 kPa, Liquid	1462.96
263.49 K, 288.7 kPa, Liquid	1462.98
263.49 K, 322.8 kPa, Liquid	1463.12
263.49 K, 327.2 kPa, Liquid	1463.13
263.49 K, 333.9 kPa, Liquid	1463.18
263.49 K, 337.8 kPa, Liquid	1463.15
263.49 K, 341.2 kPa, Liquid	1463.16
263.49 K, 345.9 kPa, Liquid	1463.25
263.49 K, 354.4 kPa, Liquid	1463.25
263.49 K, 361.4 kPa, Liquid	1463.34
263.49 K, 370.3 kPa, Liquid	1463.38
263.49 K, 388 kPa, Liquid	1463.45
263.49 K, 390.4 kPa, Liquid	1463.48
263.49 K, 401.9 kPa, Liquid	1463.54
263.49 K, 413.3 kPa, Liquid	1463.57
263.49 K, 431.1 kPa, Liquid	1463.65
263.49 K, 433.8 kPa, Liquid	1463.67
263.49 K, 447.7 kPa, Liquid	1463.79
263.49 K, 467.1 kPa, Liquid	1463.9
263.49 K, 484.1 kPa, Liquid	1463.94
263.49 K, 491.3 kPa, Liquid	1463.96
263.49 K, 502.2 kPa, Liquid	1464.1
263.49 K, 506.6 kPa, Liquid	1464.15
263.49 K, 518.2 kPa, Liquid	1464.18
263.49 K, 527.6 kPa, Liquid	1464.19
263.49 K, 529.9 kPa, Liquid	1464.3
263.49 K, 550.9 kPa, Liquid	1464.3
263.49 K, 554.1 kPa, Liquid	1464.39
263.49 K, 574.4 kPa, Liquid	1464.38
263.49 K, 584.9 kPa, Liquid	1464.43
263.49 K, 596.2 kPa, Liquid	1464.57
263.49 K, 625.2 kPa, Liquid	1464.59
263.49 K, 652.6 kPa, Liquid	1464.81
263.49 K, 673 kPa, Liquid	1464.96
263.49 K, 705.5 kPa, Liquid	1465.02
263.49 K, 728.3 kPa, Liquid	1465.2
263.49 K, 751.2 kPa, Liquid	1465.25
263.49 K, 772.1 kPa, Liquid	1465.47
263.49 K, 792.6 kPa, Liquid	1465.54
263.49 K, 813.9 kPa, Liquid	1465.54
263.49 K, 853.1 kPa, Liquid	1465.89
263.49 K, 888.3 kPa, Liquid	1465.94
263.49 K, 912.8 kPa, Liquid	1466.07
263.49 K, 939.3 kPa, Liquid	1466.24
263.49 K, 962.1 kPa, Liquid	1466.39
263.49 K, 982.9 kPa, Liquid	1466.54
263.49 K, 1031 kPa, Liquid	1466.76
263.49 K, 1064.1 kPa, Liquid	1466.9
263.49 K, 1098.2 kPa, Liquid	1467.05
263.49 K, 1132.8 kPa, Liquid	1467.28
263.49 K, 1165.8 kPa, Liquid	1467.41
263.49 K, 1201.1 kPa, Liquid	1467.57
263.49 K, 1250.1 kPa, Liquid	1467.92
